# Structures can show the parent of a compound that is named as a salt. Where two headings read alike, the source gives them in different places.
# Experiments:
# T. b. brucei = assay: microbe, parasite or virus in culture; assay type: cell-based, T. b. brucei (strain Lister 427)
# Method: Cells were routinely diluted when reaching the mid-log-phase concentration of 2 × 10^6 cells/mL and maintained in culture for no more than 30 passages.
# Compounds’ potency against trypanosomes was assessed by Alamar blue assay.[31] Cells were seeded at a final concentration of 2 × 10^4 cells/mL into serial dilutions of the test compound. After 48 h incubation at 37 °C and 5% CO2, 20 μL of resazurin dye (Sigma-Aldrich) solution at 0.49 mM was added, and cells were incubated for a further 24 h. The reduction of resazurin was measured with a fluorimeter (FLUOstar Optima, BMG Labtech) using 544 nm excitation and 590 nm emission wavelengths. Output was plotted using the IC50 determination algorithm of the GraphPad Prism 5.0 software. All experiments were carried out in duplicate and repeated on at least three independent occasions.
# Clearance (Cli) = assay type: in vitro ADME; settings: footnote: Cli is the clearance in vivo
# [1] = Plasma binding (fraction unbound); assay type: in vitro ADME; settings: mouse; fraction unbound by plasma; read-out: plasma bind fu
# HEK 293T cells = assay: cells; assay type: cell-based, human; settings: read-out: HEK (IC50 μM)
# [2] = Metabolic stability in microsomal assay (t1/2); assay type: in vitro ADME; settings: microsomes
# T. b. brucei strain 427 = settings: infected mice, 30 mg/kg i.p. once daily up to 4 days; one surviving mouse per group; from ∼10^8
# Method: Twenty-four hours postinfection mice were injected intraperitoneally with 30 mg/kg daily of test compound (repeated for four consecutive days), prepared in a 10% v/v DMSO, 40% v/v PEG, and 50% v/v water solution. Parasitaemia was monitored daily by tail venipuncture. Infected, untreated mice were used as control.
# [3] = Trypanosoma brucei, read-out: T. b. brucei (IC50 μM), medium not stated
# [4] = half-life of the compound, read-out: t1/2
# [5] = Trypanosoma brucei, read-out: T. b. brucei (IC50 μM) CMM, Creek's minimal medium (CMM)
# [6] = Trypanosoma brucei, read-out: T. b. brucei (IC50 μM) HMI-9, HMI-9 medium
# [7] = read-out: T. b. brucei (IC50 μM) CMM, Creek's minimal medium (CMM)
# [8] = read-out: T. b. brucei (IC50 μM) HMI-9, HMI-9 medium
SMILES,IC50 (T. b. brucei; [3]) [µM],"IC50 (HEK 293T cells; Homo sapiens, HEK-293T) [µM]",IC50 (T. b. brucei; [5]) [µM],IC50 (T. b. brucei; [6]) [µM],further results
Nc1nc(N2CCSCC2)c2cc[nH]c2n1 [8b],80.1,,,,
N#Cc1c[nH]c2nc(N)nc(N3CCSCC3)c12 [12d],14.3,,,,
Nc1nc(N)c(C(CCc2ccccc2)C[N+](=O)[O-])c(N)n1 (stereo not shown) [28d],8.82,,,,
"Nc1nc(N)c2c(-c3ccccc3)c(-c3ccccc3)[nH]c2n1 [35a, 5,6-Diphenyl-7H-pyrrolo[2,3-d]pyrimidine-2,4-diamine]",,62.9,0.58,2.25,"Cli (Clearance (Cli)): 5.26 mL/min/g; fraction unbound [1]: 0.035; IC50 (HEK 293T cells): 62.9 µM; half-life [2, 4]: ~1.67 h; IC50 (T. b. brucei; [7]): 0.583 µM; IC50 (T. b. brucei; [8]): 2.25 µM"
"N=C(N)c1ccc(/N=N/Nc2ccc(C(=N)N)cc2)cc1 [diminazene, reference compound]",,,0.007,0.027,
"Nc1nc(N)c2c(-c3ccccc3)c(-c3ccc(F)cc3)[nH]c2n1 [35b, 6-(4-Fluorophenyl)-5-phenyl-7H-pyrrolo[2,3-d]pyrimidine-2,4-diamine]",,49.2,0.08,0.32,"Cli (Clearance (Cli)): 1.90 mL/min/g; fraction unbound [1]: 0.011; IC50 (HEK 293T cells): 49.2 µM; half-life [2, 4]: > 8.33 h; half-life ([2]; metabolic stability in microsomal assay, read-out: t1/2 in microsomal assay): > 8 h; IC50 (T. b. brucei; [7]): 0.082 µM; IC50 (T. b. brucei; [8]): 0.321 µM; reduction of parasitaemia (T. b. brucei strain 427): below detectable limits"
Nc1nc(N)c(C(C[N+](=O)[O-])c2ccc(F)cc2)c(=O)[nH]1 (stereo not shown) [26b],1.86,150,,,
"Nc1nc(N2CCCC2)c2c(C#Cc3ccccc3)c[nH]c2n1 [compound 20, 5-(Phenylethynyl)-4-(1-pyrrolidinyl)-7H-pyrrolo[2,3-d]pyrimidin-2-amine]",,,,,Cli (Clearance (Cli)): 5.6 mL/min/g
"Nc1nc2[nH]c(-c3ccc(CCCN4CCOCC4)cc3)c(-c3ccccc3)c2c(=O)[nH]1 [compound 38, 2-Amino-6-{4-[3-(4-morpholinyl)propyl]phenyl}-5-phenyl-3,7-dihydro-4H-pyrrolo[2,3-d]pyrimidin-4-one trifluoroacetate]",,,20.1,38.1,
Nc1nc2[nH]c(-c3ccccc3)c(CCc3ccccc3)c2c(=O)[nH]1 [34i],,,,,Cli (Clearance (Cli)): 2.5 mL/min/g
"Nc1nc(N)c(C(C[N+](=O)[O-])c2ccccc2)c(=O)[nH]1 (stereo not shown) [26c, 2,6-diamino-5-(2-nitro-1-phenylethyl)-4(3H)-pyrimidinone]",1.02,134,,,
Nc1nc2[nH]cc(CCc3ccccc3)c2c(=O)[nH]1 [27d],7620,,,,
"Nc1nc2[nH]c(-c3ccccc3)c(-c3ccccc3)c2c(=O)[nH]1 [34a, 2-Amino-5,6-diphenyl-3,7-dihydro-4H-pyrrolo[2,3-d]pyrimidin-4-one]",,,0.41,0.64,"fraction unbound [1]: 0.029; half-life [2, 4]: ~2.17 h; IC50 (T. b. brucei; [7]): 0.407 µM"
Nc1nc(N)c(C(C[N+](=O)[O-])c2ccc(F)cc2)c(NC2CCCCC2)n1 (stereo not shown) [30b],,32.6,0.8,0.54,
"CN(Cc1cnc2nc(N)nc(N)c2n1)c1ccc(C(=O)N[C@@H](CCC(=O)O)C(=O)O)cc1 [methotrexate, reference compound]",,,0.011,3.66,
CC(C)COc1nc(N)nc(N)c1C(C[N+](=O)[O-])c1ccc(F)cc1 (stereo not shown) [30a],,,10.6,13.9,
Nc1nc2[nH]c(-c3ccc(F)cc3)c(-c3cccc(Cl)c3)c2c(=O)[nH]1 [34l],,,,,Cli (Clearance (Cli)): <0.5 mL/min/g
"CC(C)Oc1nc(N)nc(N)c1C(C[N+](=O)[O-])c1ccc(F)cc1 (stereo not shown) [30c, 5-[1-(4-Fluorophenyl)-2-nitroethyl]-6-isopropyloxy-2,4-pyrimidinediamine]",,,8.48,15.9,
Cc1ccc(C(C[N+](=O)[O-])c2c(N)nc(N)nc2N)cc1 (stereo not shown) [28a],0.47,32.5,,,
N#Cc1c(-c2cccc(C=O)c2)[nH]c2nc(N)nc(N)c12 [6a],6.03,,,,
Cc1ccc(C(C[N+](=O)[O-])c2c(N)nc(N)[nH]c2=O)cc1 (stereo not shown) [26a],2.04,73.4,,,
Nc1nc(N)c2c(-c3ccc(F)cc3)c[nH]c2n1 [29b],,,,,Cli (Clearance (Cli)): 1.7 mL/min/g
"Nc1nc(N)c(C(C[N+](=O)[O-])c2ccccc2)c(N)n1 (stereo not shown) [28c, 5-(2-Nitro-1-phenylethyl)-2,4,6-pyrimidinetriamine]",0.13,35,,,
"Nc1nc2[nH]c(-c3ccc(F)cc3)c(-c3ccccc3)c2c(=O)[nH]1 [34c, 2-Amino-6-(4-fluorophenyl)-5-phenyl-3,7-dihydro-4H-pyrrolo[2,3-d]pyrimidin-4-one]",,> 200,0.61,0.74,Cli (Clearance (Cli)): 0.17 mL/min/g; fraction unbound [1]: 0.017; IC50 (T. b. brucei; [7]): 0.614 µM; IC50 (T. b. brucei; [8]): 0.738 µM
Nc1nc(N)c(C(C[N+](=O)[O-])c2ccc(F)cc2)c(N)n1 (stereo not shown) [28b],0.16,39.1,,,
"N#Cc1c[nH]c2nc(N)nc(N)c12 [compound 4, 2,4-diamino-7H-pyrrolo[2,3-d]pyrimidine-5-carbonitrile]",2440,,,,
